Key:
[1] = tested on: 293 KT14-KO and KPB1-KD cells; experiment: FACS binding to cells with only one target present; set-up: species or system human; conditions: CD47 knock-out or Pgp knock-down 293T cells, FIG. 4
Procedure: In FIG. 4A-4B, the binding of the bispecific antibody is shown by FACS analysis against a variety of cell lines. The first scan (left panel in FIG. 4A and FIG. 4B) illustrates binding of the antibody to cells co-expressing both targets, (Pgp and CD47). […] FIG. 4A-4B further show binding with titrated antibody concentrations of 600 nM, 200 nM, 66 nM, 7.4 nM and 2 nM, with the signal measured from isotype and no antibody control also provided. The respective antibody concentrations are indicated in the left panel of FIG. 4A and FIG. 4B, and the measured signal from these different concentrations are generally overlapping in the middle and right panels of FIGS. 4A and 4B. FIG. 4A and FIG. 4B represent results obtained from two different batches of antibody.

[2] = tested on: HeyT30 cells; experiment: HeyT30 tumors in mice; assay type: in vivo; conditions: FIG. 19
Text: The BisP1.1 bispecific antibody was efficacious against two additional multidrug resistant (MDR) cancer cell lines in xenograft studies. The A2780ADR MDR cancer cell line expresses both CD47 and ABCB1. The HeyT30 MDR cancer cell line also expresses both CD47 and ABCB1 but at a lower level compared to A2780ADR cells (FIGS. 16 and 17). Both the A2780ADR and the HeyT30 cell lines are of ovarian origin. PE-conjugated, commercially available anti-MDR1 and anti-CD47 reagent antibodies were used; for MDR1, Biolegend Cat. No. 348606 and, CD47, Biolegend Cat. No. 323108.
A2780ADR MDR cancer cell line and HeyT30 MDR cancer cell line were injected into mice according to protocols described in Example 3. Mice were treated with BisP1.1 bispecific antibody with or without paclitaxel.

[3] = tested on: multidrug resistant N6ADR cells; experiment: N6ADR tumors in mice (Example 5); assay type: in vivo
Procedure: Tumors formed by injecting multidrug resistant N6ADR cells in mice were treated by administering the anti-MDR1 antibody 15D3, with or without paclitaxel or administering KbisP1.1 with or without paclitaxel.

[4] = tested on: CTG-2616 patient-derived breast tumors; experiment: CTG-2616 patient-derived breast cancer model; assay type: in vivo, mice; conditions: antibody 6 mg/kg and paclitaxel 5 mg/kg
Text: Cells: CTG-2616 is a ER^+/Her2^+ primary breast cancer, derived from a patient presenting with recurrent ductal adenocarcinoma of the breast.
Mice: 5-6-weeks-old athymic Nude-Foxn1nu female nude mice (Envigo) were used in this study.
Inoculation—Snap-Frozen pieces of patient-derived tumors were thawed, cut into 5×5×5 mm and were subcutaneously injected into anesthetized 5-6-week-old female nude mice under sterile conditions. For tumor implantation procedure, a 1-1.5 cm incision was made on the implantation site and forceps were used to implant the tumor fragment. When sufficient stock animals reached 1000-1500 mm^3, tumors were harvested for re-implantation into pre-study animals. Pre-study animals were implanted unilaterally on the left flank with tumor fragments harvested from stock animals. Each animal was implanted from a specific passage lot and documented. Pre-study tumor volumes were recorded for each experiment beginning seven to ten days after implantation. When tumors reached an average tumor volume of 150-300 mm^3, animals were matched by tumor volume into treatment or control groups to be used for dosing and dosing initiated on Day 0. All surgical procedures were conducted under sterile conditions. […]

KBisP1.1: bispecific anti-MDR1/anti-CD47 antibody: 15D3 heavy chain, 5F9 (KT14) heavy chain, common MRK16 light chain, human IgG1
FACS binding when only one of the targets is present [1]: does not show significant binding
FACS binding when only one of the targets is present ([1]; listed as HC-15D3:HC-5F9:LC-MRK16): significantly reduced binding
tumor volume ([2]; higher concentration of the antibody): efficacious with and without paclitaxel
tumor volume ([2]; lower concentration of the antibody): efficacious in reducing HeyT30 MDR cancer cell tumor volume with paclitaxel
chemo-sensitization of N6ADR tumor to paclitaxel ([3]; FIG. 21): dose-dependent
efficacy against N6ADR cell tumors ([3]; with or without paclitaxel, FIG. 20): more efficacious than the 15D3 antibody
tumor growth with paclitaxel [4]: tumor growth inhibition

Reference: patent US12331121B2, “Efflux pump-cancer antigen multi-specific antibodies and compositions, reagents, kits and methods related thereto” (William Robert Arathoon Living Trust Dated August 29, 2016, priority 2019, dated 2025)
